Data taken from patent publication US10253002B2, “Compounds and methods of treating infections” (Neoculi Pty Ltd., priority 2013, dated 2019).
Values after ≈ are worked out from the molar mass of the structure shown. Read-outs that look alike come from different tables or passages of the source.

What was measured:
Assay in all cases: Broth microdilution MIC, Example 7 (NCL812 and analogues)
[1] = test system: MRSA; assay type: cell-based, Staphylococcus aureus; conditions: Staphylococcus aureus, MRSA, read-out: MIC
In short: (§1)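 Turbidity read visually and then at 600 nm defined the MIC (μg/ml), comparing drug-containing wells with a growth-control well lacking antimicrobial. Testing followed the CLSI broth microdilution method, in duplicate, using two strains per organism group.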

[2] = test system: VRE; assay type: cell-based, Enterococcus spp.; conditions: Enterococcus, VRE
In short: as §1

[3] = test system: Pseudomonas aeruginosa; assay type: cell-based; conditions: Pseudomonas aeruginosa

## CC1(C)S[C@@H]2[C@H](NC(=O)[C@H](N)c3ccccc3)C(=O)N2[C@H]1C(=O)O [Ampicillin]
[1]; MRSA 741, Phase II, 2nd
  MIC: 4 µg/mL (≈ 11.4 µM)
[1]; MRSA 747, Phase I, 1st
  MIC: > 128 µg/mL
[1]; MRSA 747, Phase I, 2nd
  MIC: > 128 µg/mL
[1]; MRSA 747, Phase II, 1st
  MIC: 64 µg/mL (≈ 183 µM)
[1]; MRSA 747, Phase II, 2nd
  MIC: 64 µg/mL (≈ 183 µM)
[1]; MRSA 773, Phase I, 1st
  MIC: 64 µg/mL (≈ 183 µM)
[1]; MRSA 773, Phase I, 2nd
  MIC: 64 µg/mL (≈ 183 µM)
[1]; MRSA 773, Phase II, 1st
  MIC: 64 µg/mL (≈ 183 µM)
[1]; MRSA 773, Phase II, 2nd
  MIC: 64 µg/mL (≈ 183 µM)
[1]; MRSA 778, Phase I, 1st
  MIC: > 128 µg/mL
[1]; MRSA 778, Phase I, 2nd
  MIC: > 128 µg/mL
[1]; MRSA 786, Phase I, 1st
  MIC: 32 µg/mL (≈ 91.6 µM)
[1]; MRSA 786, Phase I, 2nd
  MIC: 32 µg/mL (≈ 91.6 µM)
[1]; MRSA 786, Phase II, 1st
  MIC: 32 µg/mL (≈ 91.6 µM)
[1]; MRSA 786, Phase II, 2nd
  MIC: 32 µg/mL (≈ 91.6 µM)
[1]; MRSA 787, Phase I, 1st
  MIC: > 128 µg/mL
[1]; MRSA 787, Phase I, 2nd
  MIC: > 128 µg/mL
[1]; MRSA 787, Phase II, 1st
  MIC: 64 µg/mL (≈ 183 µM)
[1]; MRSA 787, Phase II, 2nd
  MIC: 64 µg/mL (≈ 183 µM)
[1]; MRSA 815, Phase I, 1st
  MIC: 64 µg/mL (≈ 183 µM)
[1]; MRSA 815, Phase I, 2nd
  MIC: 64 µg/mL (≈ 183 µM)
[1]; MRSA 815, Phase II, 1st
  MIC: 32 µg/mL (≈ 91.6 µM)
[1]; MRSA 815, Phase II, 2nd
  MIC: 32 µg/mL (≈ 91.6 µM)
[1]; MRSA 823, Phase I, 1st
  MIC: > 128 µg/mL
[1]; MRSA 823, Phase I, 2nd
  MIC: > 128 µg/mL
[1]; MRSA 844, Phase II, 1st
  MIC: 64 µg/mL (≈ 183 µM)
[1]; MRSA 844, Phase II, 2nd
  MIC: 32 µg/mL (≈ 91.6 µM)
[2]; 24 h, read-out: MIC (μg/ml) at 24 hours, VRE 1, isolate VRE 1, 24 hours, 1st and 2nd replicate rows
  MIC: 0.5 µg/mL (≈ 1.43 µM)
[2]; 24 h, read-out: MIC (μg/ml) at 24 hours, VRE 2, isolate VRE 2, 24 hours, 1st and 2nd replicate rows
  MIC: 0.25 µg/mL (≈ 0.715 µM)
[2]; VRE 002 [H12c], Phase I, 1st, read-out: MIC
  MIC: 1 µg/mL (≈ 2.86 µM)
[2]; VRE 002 [H12c], Phase I, 2nd, read-out: MIC
  MIC: 1 µg/mL (≈ 2.86 µM)
[2]; VRE 002 [H12c], Phase II, 1st, read-out: MIC
  MIC: 0.25 µg/mL (≈ 0.715 µM)
[2]; VRE 002 [H12c], Phase II, 2nd, read-out: MIC
  MIC: 0.25 µg/mL (≈ 0.715 µM)
[2]; VRE 003 [H14t], Phase I, 1st, read-out: MIC
  MIC: 0.5 µg/mL (≈ 1.43 µM)
[2]; VRE 003 [H14t], Phase I, 2nd, read-out: MIC
  MIC: 0.5 µg/mL (≈ 1.43 µM)
[2]; VRE 003 [H14t], Phase II, 1st, read-out: MIC
  MIC: 0.25 µg/mL (≈ 0.715 µM)
[2]; VRE 003 [H14t], Phase II, 2nd, read-out: MIC
  MIC: 0.25 µg/mL (≈ 0.715 µM)
[2]; VRE 004 [H16c], Phase I, 1st, read-out: MIC
  MIC: 1 µg/mL (≈ 2.86 µM)
[2]; VRE 004 [H16c], Phase I, 2nd, read-out: MIC
  MIC: 1 µg/mL (≈ 2.86 µM)
[2]; VRE 004 [H16c], Phase II, 1st, read-out: MIC
  MIC: 0.25 µg/mL (≈ 0.715 µM)
[2]; VRE 004 [H16c], Phase II, 2nd, read-out: MIC
  MIC: 0.25 µg/mL (≈ 0.715 µM)
[2]; VRE 005 [H17c], Phase I, 1st, read-out: MIC
  MIC: 1 µg/mL (≈ 2.86 µM)
[2]; VRE 005 [H17c], Phase I, 2nd, read-out: MIC
  MIC: 1 µg/mL (≈ 2.86 µM)
[2]; VRE 005 [H17c], Phase II, 1st, read-out: MIC
  MIC: 0.25 µg/mL (≈ 0.715 µM)
[2]; VRE 005 [H17c], Phase II, 2nd, read-out: MIC
  MIC: 0.25 µg/mL (≈ 0.715 µM)
[2]; VRE 006 [H19t], Phase I, 1st, read-out: MIC
  MIC: 1 µg/mL (≈ 2.86 µM)
[2]; VRE 006 [H19t], Phase I, 2nd, read-out: MIC
  MIC: 1 µg/mL (≈ 2.86 µM)
[2]; VRE 006 [H19t], Phase II, 1st, read-out: MIC
  MIC: 0.25 µg/mL (≈ 0.715 µM)
[2]; VRE 006 [H19t], Phase II, 2nd, read-out: MIC
  MIC: 0.25 µg/mL (≈ 0.715 µM)
[2]; VRE 007 [H23c], Phase I, 1st, read-out: MIC
  MIC: 1 µg/mL (≈ 2.86 µM)
[2]; VRE 007 [H23c], Phase I, 2nd, read-out: MIC
  MIC: 1 µg/mL (≈ 2.86 µM)
[2]; VRE 007 [H23c], Phase II, 1st, read-out: MIC
  MIC: 0.25 µg/mL (≈ 0.715 µM)
[2]; VRE 007 [H23c], Phase II, 2nd, read-out: MIC
  MIC: 0.25 µg/mL (≈ 0.715 µM)
[2]; VRE 008 [H16c(dc)], Phase I, 1st, read-out: MIC
  MIC: 1 µg/mL (≈ 2.86 µM)
[2]; VRE 008 [H16c(dc)], Phase I, 2nd, read-out: MIC
  MIC: 1 µg/mL (≈ 2.86 µM)
[2]; VRE 008 [H16c(dc)], Phase II, 1st, read-out: MIC
  MIC: 1 µg/mL (≈ 2.86 µM)
[2]; VRE 008 [H16c(dc)], Phase II, 2nd, read-out: MIC
  MIC: 1 µg/mL (≈ 2.86 µM)
[2]; VRE 009 [H25c], Phase I, 1st, read-out: MIC
  MIC: 1 µg/mL (≈ 2.86 µM)
[2]; VRE 009 [H25c], Phase I, 2nd, read-out: MIC
  MIC: 1 µg/mL (≈ 2.86 µM)
[2]; VRE 009 [H25c], Phase II, 1st, read-out: MIC
  MIC: 1 µg/mL (≈ 2.86 µM)
[2]; VRE 009 [H25c], Phase II, 2nd, read-out: MIC
  MIC: 1 µg/mL (≈ 2.86 µM)
[2]; VRE 010 [H26c(w)], Phase I, 1st, read-out: MIC
  MIC: 2 µg/mL (≈ 5.72 µM)
[2]; VRE 010 [H26c(w)], Phase I, 2nd, read-out: MIC
  MIC: 2 µg/mL (≈ 5.72 µM)
[2]; VRE 010 [H26c(w)], Phase II, 1st, read-out: MIC
  MIC: 1 µg/mL (≈ 2.86 µM)
[2]; VRE 010 [H26c(w)], Phase II, 2nd, read-out: MIC
  MIC: 1 µg/mL (≈ 2.86 µM)
[2]; VRE 011 [H26c(dc)], Phase I, 1st, read-out: MIC
  MIC: 1 µg/mL (≈ 2.86 µM)
[2]; VRE 011 [H26c(dc)], Phase I, 2nd, read-out: MIC
  MIC: 1 µg/mL (≈ 2.86 µM)
[2]; VRE 011 [H26c(dc)], Phase II, 1st, read-out: MIC
  MIC: 0.5 µg/mL (≈ 1.43 µM)
[2]; VRE 011 [H26c(dc)], Phase II, 2nd, read-out: MIC
  MIC: 0.5 µg/mL (≈ 1.43 µM)
[2]; VRE 012 [H35t], Phase I, 1st, read-out: MIC
  MIC: 0.5 µg/mL (≈ 1.43 µM)
[2]; VRE 012 [H35t], Phase I, 2nd, read-out: MIC
  MIC: 0.5 µg/mL (≈ 1.43 µM)
[2]; VRE 012 [H35t], Phase II, 1st, read-out: MIC
  MIC: 0.25 µg/mL (≈ 0.715 µM)
[2]; VRE 012 [H35t], Phase II, 2nd, read-out: MIC
  MIC: 0.5 µg/mL (≈ 1.43 µM)
[2]; VRE 013 [H37c(w)], Phase I, 1st, read-out: MIC
  MIC: 2 µg/mL (≈ 5.72 µM)
[2]; VRE 013 [H37c(w)], Phase I, 2nd, read-out: MIC
  MIC: 2 µg/mL (≈ 5.72 µM)
[2]; VRE 013 [H37c(w)], Phase II, 1st, read-out: MIC
  MIC: 1 µg/mL (≈ 2.86 µM)
[2]; VRE 013 [H37c(w)], Phase II, 2nd, read-out: MIC
  MIC: 1 µg/mL (≈ 2.86 µM)
[2]; VRE 014 [H37c(g)], Phase I, 1st, read-out: MIC
  MIC: 1 µg/mL (≈ 2.86 µM)
[2]; VRE 014 [H37c(g)], Phase I, 2nd, read-out: MIC
  MIC: 1 µg/mL (≈ 2.86 µM)
[2]; VRE 014 [H37c(g)], Phase II, 1st, read-out: MIC
  MIC: 1 µg/mL (≈ 2.86 µM)
[2]; VRE 014 [H37c(g)], Phase II, 2nd, read-out: MIC
  MIC: 1 µg/mL (≈ 2.86 µM)
[3]; 24 h, read-out: MIC (μg/ml) at 24 hours, P. aeruginosa, 24 hours, 1st and 2nd replicate rows
  MIC: > 128 µg/mL
[3]; P. aeruginosa, 1st, read-out: MIC
  MIC: > 128 µg/mL
[3]; P. aeruginosa, 2nd, read-out: MIC
  MIC: > 128 µg/mL
